These results are taken from patent publication US9938292B2 (GUANGDONG ZHONGSHENG PHARMACEUTICAL CO., LTD, priority 2014, dated 2018).

This assay has as its system Hedgehog signaling pathway. The assay can be described thus: Gli-Luc luciferase reporter gene assay in C3H10T1/2/Gli-Luc cells under Shh-N stimulation. The note with it: luciferase RLU, read-out: biological activity: IC50 of the inhibitory activities of compounds on the hedgehog pathway. The class given is cell-based. A digest of the protocol:
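IC50 derived by curve fitting of luciferase RLU against log compound concentration. Stable C3H10T1/2/Gli-Luc cells, seeded overnight, were co-treated 24 h with serially diluted compound (7 points, duplicate wells) and 30 nM Shh-N-containing HEK293 conditioned medium before lysis and luminescence readout.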

Structures are written as SMILES. Read-outs that look alike come from different tables or passages of the source.

What is called IC50 is the concentration needed to halve the response being measured.

Regarding `COc1c(-c2ccc(N3C[C@@H](C)O[C@@H](C)C3)cc2)nnc2c(-c3ccc(C#N)cc3)cccc12` [Embodiment 152, 4-(3-(4-((2R,6S)-2,6-dimethylmorpholino)phenyl)-4-methoxycinnolin-8-yl) benzonitrile], the IC50 (Mus musculus, C3H 10T1/2, 24 h) is at most 50 nM.
For the compound `C[C@@H]1CN(c2ccc(-c3cnc4c(-c5ccc(C#N)cc5)cncc4c3Cl)cc2)C[C@H](C)O1` [Embodiment 153, 4-(4-chloro-3-(4-((2S,6R)-2,6-dimethylmorpholino)phenyl)-1,6-naphthyridin-8-yl) benzonitrile], where the note is “Mus musculus, C3H 10T1/2, 24 h”, the IC50 was in the range of 100 to 500 nM.
The same measure, in the same setting: the value for `C[C@@H]1CN(c2ccc(-c3cnc4c(-c5ccc(C#N)cc5)cncc4c3N(C)C)cc2)C[C@H](C)O1` [Embodiment 155, 4-(4-(dimethylamino)-3-(4-((2S,6R)-2,6-dimethylmorpholino)phenyl)-1,6-naphthyridin-8-yl)benzonitrile] was 100 to 500 nM; that for `COc1c(-c2ccc(N3C[C@@H](C)O[C@@H](C)C3)cc2)cnc2c1CCCC2(O)c1ccc(C#N)cc1` (stereo partly drawn) [Embodiment 156, 4-(3-(4-((2S,6R)-2,6-dimethylmorpholino)phenyl)-8-hydroxy-4-methoxy-5,6,7,8-tetra hydroquinolin-8-yl)benzonitrile] was 500 to 1000 nM.
The same measure, in the same setting: in the case of `COc1c(-c2ccc(N3C[C@@H](C)O[C@@H](C)C3)cc2)cnc2c1CCCC2(OC)c1ccc(C#N)cc1` (stereo partly drawn) [Embodiment 157, 4-(3-(4-((2S,6R)-2,6-dimethylmorpholino)phenyl)-4,8-dimethoxy-5,6,7,8-tetrahydroquinolin-8-yl)benzonitrile] it was 1000 to 5000 nM.
The same measure, in the same setting: the value for `COc1c(-c2ccc(N3C[C@@H](C)O[C@@H](C)C3)nc2)cnc2c(-c3ccc(C#N)cc3)cccc12` [Embodiment 158, 4-(3-(6-((2S,6R)-2,6-dimethylmorpholino)pyridin-3-yl)-4-methoxyquinolin-8-yl) benzonitrile] was at most 50 nM; that for `COc1c(-c2ccc(N3C[C@@H](C)O[C@@H](C)C3)nc2)cnc2c(-c3ccc(C(F)(F)F)cc3)cccc12` [Embodiment 159] was at most 50 nM; that for `COc1c(-c2ccc(N3C[C@@H](C)O[C@@H](C)C3)nc2)cnc2c(-c3ccc(OC(F)(F)F)cc3)cccc12` [Embodiment 160] was at most 50 nM.
In the case of `COc1c(-c2ccc(N3C[C@@H](C)O[C@@H](C)C3)nc2)cnc2c(-c3ccc(S(C)(=O)=O)cc3)cccc12` [Embodiment 161], the IC50 (Mus musculus, C3H 10T1/2, 24 h) is at most 50 nM.
Same read-out and setting: in the case of `COc1c(-c2ccc(N3C[C@@H](C)O[C@@H](C)C3)nc2)cnc2c(-c3ccccc3)cccc12` [Embodiment 162] it was at most 50 nM.
Consider `COc1c(-c2ccc(N3C[C@@H](C)O[C@@H](C)C3)nc2)cnc2c(-c3ccc(C)nc3)cccc12` [Embodiment 163], for which the IC50 (Mus musculus, C3H 10T1/2, 24 h) fell in the range of 100 to 500 nM.
Same read-out and setting: in the case of `COc1c(-c2ccc(N3C[C@@H](C)O[C@@H](C)C3)nc2)cnc2c(-c3ccc(C(C)C)nc3Cl)cccc12` [Embodiment 164] it was 100 to 500 nM.
Same read-out and setting: the value for `COc1c(-c2ccc(N3C[C@@H](C)O[C@@H](C)C3)nc2)cnc2c(-c3ccnn3C)cccc12` [Embodiment 165] was 100 to 500 nM; that for `COc1c(-c2ccc(N3C[C@@H](C)O[C@@H](C)C3)nc2C)cnc2c(-c3ccc(C#N)cc3)cccc12` [Embodiment 166, 4-(3-(6-((2S,6R)-2,6-dimethylmorpholino)-2-methylpyridin-3-yl)-4-methoxyquinolin-8-yl)benzonitrile] was at most 50 nM.
As to `COc1c(-c2cnc(N3C[C@@H](C)O[C@@H](C)C3)cc2C)cnc2c(-c3ccc(C#N)cc3)cccc12` [Embodiment 167], the IC50 (24 h) is at most 50 nM.
Consider `COc1c(-c2ccc(N3C[C@@H](C)O[C@@H](C)C3)cc2F)cnc2c(-c3ccc(C#N)cc3)cccc12` [Embodiment 168, 4-(3-(4-((2S,6R)-2,6-dimethylmorpholino)-2-fluorophenyl)-4-methoxyquinolin-8-yl) benzonitrile], for which the IC50 (Mus musculus, C3H 10T1/2, 24 h) is at most 50 nM.
The same measure, in the same setting: in the case of `COc1c(-c2ccc(N3C[C@@H](C)O[C@@H](C)C3)cc2C)cnc2c(-c3ccc(C#N)cc3)cccc12` [Embodiment 169] it was at most 50 nM.
